Experimental data reported in patent US9617602B2, “Methods and compositions for determining resistance to androgen receptor therapy” (Aragon Pharmaceuticals, Inc., priority 2012, dated 2017).
Read-outs that look alike come from different tables or passages of the source.

System: prostate specific antigen (PSA)
Format: in vivo
Text: Patients with mCRPC were assigned sequentially to dose levels in cohorts of 3 to 6 patients per dose level using standard 3×3 dose-escalation criteria.
Eligible patients who signed informed consent documents were initially enrolled into a dose escalation cohort where they will receive a single oral dose of ARN-509 followed by a one-week observation period (PK Week). Continuous dosing began on Cycle 1 Day 1 assuming no unacceptable toxicities were observed.
A minimum of 3 subjects at each dose level were monitored for a DLT through day 28 of Cycle 1.
The starting dose was 30 mg/day, with escalations to 60 mg, 90 mg, 120 mg, 180 mg, 240 mg, 300 mg, 390 mg, and 480 mg daily. It was anticipated that these dose levels span the anticipated pharmacologically active dose range and be within the safety margin indicated by the preclinical toxicology results.
Following the selection of 240 mg as the RP2D, additional eligible patients were enrolled in the Phase 2 portion of the study, consisting of 3 concurrent expansion cohorts at the MTD and/or RP2D to gather additional safety information and provide an initial signal of anti-tumor activity. The three expansion cohorts included:
It was expected that each patient with mCRPC would receive at least 3 cycles (12 weeks) of continuous treatment and each patient with non-metastatic CRPC will receive at least 4 cycles (16 weeks) of continuous treatment. Treatment was discontinued at any time for protocol-defined disease progression or unacceptable toxicity. Tumor evaluations were performed every 3 cycles (12 weeks) for patients with mCRPC and every 4 cycles (16 weeks) for patients with non-metastatic CRPC. Safety was assessed from the first dose through at least four weeks after the last dose or until resolution of drug-related toxicity, or when toxicity is deemed irreversible, whichever was longer.

CNC(=O)c1ccc(N2C(=S)N(c3cnc(C#N)c(C(F)(F)F)c3)C(=O)C23CCC3)cc1F [ARN-509]
PSA, Patient 10 (Cycle 4): 102 % of TO | PSA, Patient 13 (Cycle 4): 16.2 % of baseline | PSA decline from baseline, Patient 7 (Cycle 4, 8 and 10): > 90% | PSA below study start, Patient 13 (Cycle 11 and 12): > 60% | 12 week PSA Response (Patient 1): 30.49 | PSA at Time of BEAMing Analysis [Percent of Baseline] (Patient 1, Treatment Cycle 19): 195.4% of Baseline | 12 week PSA Response (Patient 2): −61.8 | PSA at Time of BEAMing Analysis [Percent of Baseline] (Patient 2, Treatment Cycle 10): 337.08% of Baseline | 12 week PSA Response (Patient 3): 22.7 | PSA at Time of BEAMing Analysis [Percent of Baseline] (Patient 3, Treatment Cycle 4): 122% of Baseline | 12 week PSA Response (Patient 4): 12.4 | PSA at Time of BEAMing Analysis [Percent of Baseline] (Patient 4, Treatment Cycle 5): 134% of Baseline | 12 week PSA Response (Patient 5): −70.65 | PSA at Time of BEAMing Analysis [Percent of Baseline] (Patient 5, Treatment Cycle 8): 16% of Baseline | 12 week PSA Response (Patient 6): −90.02 | PSA at Time of BEAMing Analysis [Percent of Baseline] (Patient 6, Treatment Cycle 10): 84.6% of Baseline | 12 week PSA Response (Patient 7): −98.6 | PSA [Percent of Day 0] (Patient 7, Treatment Cycle 4): 1.4% of Day 0 | PSA [Percent of Day 0] (Patient 7, Treatment Cycle 8): 3.3% of Day 0 | PSA [Percent of Day 0] (Patient 7, Treatment Cycle 10): 5.6% of Day 0 | PSA [Percent of Day 0] (Patient 7, Treatment Cycle 15): 41.2% of Day 0 | PSA [Percent of Day 0] (Patient 7, Treatment Cycle 19): 97.2% of Day 0 | PSA [Percent of Day 0] (Patient 7, Treatment Cycle 22): 281.0% of Day 0 | PSA at Time of BEAMing Analysis [Percent of Baseline] (Patient 7, Treatment Cycle 22): 281% of Baseline | 12 week PSA Response (Patient 8): −62.2 | PSA at Time of BEAMing Analysis [Percent of Baseline] (Patient 8, Treatment Cycle 16): 10.2% of Baseline | 12 week PSA Response (Patient 9): 26.38 | PSA at Time of BEAMing Analysis [Percent of Baseline] (Patient 9, Treatment Cycle 7): 185% of Baseline | 12 week PSA Response (Patient 10): 2.33 | PSA [Percent of Day 0] (Patient 10, Treatment Cycle 4): 102% of Day 0 | PSA [Percent of Day 0] (Patient 10, Treatment Cycle 7): 245% of Day 0 | PSA at Time of BEAMing Analysis [Percent of Baseline] (Patient 10, Treatment Cycle 7): 245% of Baseline | 12 week PSA Response (Patient 11): −49.76 | PSA at Time of BEAMing Analysis [Percent of Baseline] (Patient 11, Treatment Cycle 8): 143.88% of Baseline | 12 week PSA Response (Patient 12): −56.65 | PSA at Time of BEAMing Analysis [Percent of Baseline] (Patient 12, Treatment Cycle 7): 99.47% of Baseline | 12 week PSA Response (Patient 13): −83.79 | PSA [Percent of Day 0] (Patient 13, Treatment Cycle 4): 16.2% of Day 0 | PSA [Percent of Day 0] (Patient 13, Treatment Cycle 11): 31.7% of Day 0 | PSA at Time of BEAMing Analysis [Percent of Baseline] (Patient 13, Treatment Cycle 11): 31.7% of Baseline | PSA [Percent of Day 0] (Patient 13, Treatment Cycle 12): 39.5% of Day 0 | 12 week PSA Response (Patient 14): −43.21 | PSA at Time of BEAMing Analysis [Percent of Baseline] (Patient 14, Treatment Cycle 11): 150.5% of Baseline | 12 week PSA Response (Patient 15): 164.14 | PSA at Time of BEAMing Analysis [Percent of Baseline] (Patient 15, Treatment Cycle 3): 220% of Baseline | 12 week PSA Response (Patient 16): 89.09 | PSA at Time of BEAMing Analysis [Percent of Baseline] (Patient 16, Treatment Cycle 4): 189% of Baseline | 12 week PSA Response (Patient 17): −45.86 | PSA at Time of BEAMing Analysis [Percent of Baseline] (Patient 17, Treatment Cycle 4): 54.14% of Baseline | 12 week PSA Response (Patient 18): −95.65 | PSA at Time of BEAMing Analysis [Percent of Baseline] (Patient 18, Treatment Cycle 6): 7.34% of Baseline | 12 week PSA Response (Patient 19): −71.19 | PSA at Time of BEAMing Analysis [Percent of Baseline] (Patient 19, Treatment Cycle 11): 196.86% of Baseline | 12 week PSA Response (Patient 20): −30.88 | PSA at Time of BEAMing Analysis [Percent of Baseline] (Patient 20, Treatment Cycle 21): 89.3% of Baseline | 12 week PSA Response (Patient 21): −74.43 | PSA at Time of BEAMing Analysis [Percent of Baseline] (Patient 21, Treatment Cycle 10): 46.91% of Baseline | 12 week PSA Response (Patient 22): −82.7 | PSA at Time of BEAMing Analysis [Percent of Baseline] (Patient 22, Treatment Cycle 25): 0.19% of Baseline | 12 week PSA Response (Patient 23): 97.78 | PSA at Time of BEAMing Analysis [Percent of Baseline] (Patient 23, Treatment Cycle 8): 222.46% of Baseline | 12 week PSA Response (Patient 24): −74.86 | PSA at Time of BEAMing Analysis [Percent of Baseline] (Patient 24, Treatment Cycle 25): 4.89% of Baseline | 12 week PSA Response (Patient 25): −30.07 | PSA at Time of BEAMing Analysis [Percent of Baseline] (Patient 25, Treatment Cycle 12): 161% of Baseline | 12 week PSA Response (Patient 26): 96.51 | PSA at Time of BEAMing Analysis [Percent of Baseline] (Patient 26, Treatment Cycle 5): 214.85% of Baseline | 12 week PSA Response (Patient 27): −0.89 | PSA at Time of BEAMing Analysis [Percent of Baseline] (Patient 27, Treatment Cycle 13): 20.69% of Baseline | 12 week PSA Response (Patient 28): −33.59 | PSA at Time of BEAMing Analysis [Percent of Baseline] (Patient 28, Treatment Cycle 10): 126% of Baseline | 12 week PSA Response (Patient 29): −58.44 | PSA at Time of BEAMing Analysis [Percent of Baseline] (Patient 29, Treatment Cycle 13): 105% of Baseline | Patients exhibiting a 12 week ≧50% decline in PSA compared to baseline (across all dose groups): 14/30 | Recommended Phase 2 dose (RP2D) (human, in vivo, po, 28 days): 240 mg
